Measurements as given in US4740501A (priority 1985, dated 1988).
pIC50: −log10 of the molar value. Where “and” joins values, the source holds several entries; their conditions need not be identical. Equal entries are not always repeated.

Tests used:
P HR-1 B-lymphoma = assay: Tumor cell survival (trypan blue), continuous exposure; assay type: cell-based, Human
L1210 MTX = assay: MTX and cisplatin cross-resistance test, 24 hour exposure; assay type: cell-based
Hairy cell leukemia = assay: Survival of fresh human leukemic cells, continuous exposure; assay type: cell-based
spontaneous leukemia = assay: Treatment of spontaneous leukemia in AKR mice; assay type: in vivo
Excerpt: Leukemia in AKR mice, which is the result of the oncogenic activity of the endogenous Gross leukemia virus, has been effectively used as a model for human leukemias in the studies of tumor biology, chemotherapy, and chemoimmunotherapy. There is considerable evidence that leukemia in the AKR mice mimics human leukemias in many respects, and it is probable that AKR leukemia is analogous to human acute T-cell lymphocytic leukemia. Leukemic cells first appear in the thymus of mice at 6 to 12 months of age. Controlling this disease is formidable, since the cure or long range control of spontaneous leukemia in AKR mice require the therapeutic eradication of virtually all of the oncogenic cells. The time lapse between the first appearance of viable lymphoma cells in the thymus and the clinical diagnosis is about 30 days.
The effectiveness of the tripeptide compound in the treatment of spontaneous leukemia in AKR mice was tested. The clinical diagnosis of spontaneous leukemia in AKR mice was made with 95% accuracy by splenic and lymph node palpation, followed by leukocyte count. There is good evidence that at the time of clinical diagnosis there are 0.6-1.8×10^9 widely disseminated lymphoma cells in AKR mice. Without cytoreductive therapy, AKR mice die after diagnosis of spontaneous leukemia at the rate of 50% by 14 days, 90% by 33 days, and 96% by 56 days. […] Reduction of thymus and spleen weights to normal is indicative of eradication of the primary tumor. Leukemic AKR mice receiving either treatment sustained a mean survival time of 200% and 100%, respectively. It is also important and significant that the tripeptide compound treatment provides good sustainment since 30% of the treated animals in either group were alive after the onset on the therapy (FIG. 6).

L-1210 leukemia cells = assay: Bioassay of tumorigenicity of in vitro treated tumor cells in syngeneic hosts; assay type: in vivo; details: BDf1 mice surviving 45 days
MMTV polypeptides = assay type: cell-based, mouse
[1] = system: B-16 melanoma cell layers; assay: Tumor cell survival (trypan blue), continuous exposure; assay type: cell-based, Mouse
[2] = system: B-type mouse mammary tumor virus particles in MJY-alpha cells; assay: Electron microscopy of thin sections; assay type: cell-based; details: 25 ug/ml for 2 hours
Procedure: Thin sections MJY-alpha mammary tumor cells were prepared according to standard techniques for electronmicroscopy. The magnification was scaled where the bar was equal to one um. […] The tumor virus particles are shown in the insert and also throughout the lower two-thirds of the photograph as rope-like sections. […] It should be noted that numerous microvilli are present with budding particles also in evidence. […] After that treatment period, the layer of cells was washed and then reincubated for one (1) day prior to further processing for electronmicroscopy. Although there are some microvilli with budding particles present, the number of such particles and buds is reduced. […] The layer was then similarily washed and reincubated for a two (2) days prior to further processing for electronmicroscopy.

[3] = system: MJY-alpha mammary tumor cell layers; assay: Morphology of treated cell layers (May-Grunwald-Giemsa); assay type: cell-based; details: 5 and 10 ug/ml for 15 to 60 minutes
Procedure: Confluent MJY-alpha mammery tumor cell layers were treated with […] or diluent for 15 or 60 minutes, washed, and then incubated in growth medium. Representative cell layers were fixed and stained with May-Grunwald-Giemsastain from one (1) to seven (7) days after treatment as specified. Hemicysts or domes which are usually observed in short-term cultures of murine, MMTV-induced mammary tumors are not present in MJY-alpha cultures (FIG. 12a and b). […] Cellular pseudopodia were withdrawn and the cytoplasm appeared condensed around the nuclei (FIG. 12c and d). The most striking feature of exposure to high concentrations of PTT.119 was the ruffling of the plasma membrane and the formation of vesicles and blebs. […] This alteration was closely followed by visible increases in the cytosol volume or rarefaction of the cytoplasm (FIG. 12f). The degree of further pathological alterations of MJY-alpha mammary tumor cells was dependent on the dosage of PTT.119 and included lobulation and fragmentation of the nuclei, and the formation of multinuclear cells (FIG. 12f and h). […] Chromosomal condensation was not inhibited in multinucleated cells or in cells with highly lobulated or fragmented nuclei (FIG. 12h).

MMTV = assay type: cell-based, mouse

CCOC(=O)[C@H](CCSC)NC(=O)[C@H](Cc1cccc(N(CCCl)CCCl)c1)NC(=O)[C@@H](N)Cc1ccc(F)cc1.Cl [PTT.119, 3-(p-fluorophenyl)-L-alanyl-3-[m-bis(2-chloroethyl)aminophenyl]-L-alanyl-L-methionine ethyl ester hydrochloride]
% tumor cell survival (P HR-1 B-lymphoma; 10 ug/ml, 1 hr): 96%
% tumor cell survival (P HR-1 B-lymphoma; 10 ug/ml, 4 hr): 91%
% tumor cell survival (P HR-1 B-lymphoma; 10 ug/ml, 24 hr): 75%
% tumor cell survival (P HR-1 B-lymphoma; 25 ug/ml, 1 hr): 92%
% tumor cell survival (P HR-1 B-lymphoma; 25 ug/ml, 4 hr): 86%
% tumor cell survival (P HR-1 B-lymphoma; 25 ug/ml, 24 hr): 69%
% tumor cell survival (P HR-1 B-lymphoma; 50 ug/ml, 1 hr): 93%
% tumor cell survival (P HR-1 B-lymphoma; 50 ug/ml, 4 hr): 75%
% tumor cell survival (P HR-1 B-lymphoma; 50 ug/ml, 24 hr): 60%
T.C.D.100 (L1210 MTX; L1210 MTX, 24 hours exposure): 3.75 µM
pIC50 (L1210 MTX; Mus musculus, L1210, 24 h, read-out: T.C.D.50): 5.71
% tumor cell survival (Hairy cell leukemia; 5 ug/ml, 1 hr): 100%
% tumor cell survival (Hairy cell leukemia; 5 ug/ml, 4 hr): 80%
% tumor cell survival (Hairy cell leukemia; 5 ug/ml, 24 hr): 34%
% tumor cell survival (Hairy cell leukemia; 10 ug/ml, 1 hr): 100%
% tumor cell survival (Hairy cell leukemia; 10 ug/ml, 4 hr): 71%
% tumor cell survival (Hairy cell leukemia; 10 ug/ml, 24 hr): 81%
% tumor cell survival (Hairy cell leukemia; 25 ug/ml, 1 hr): 92%
% tumor cell survival (Hairy cell leukemia; 25 ug/ml, 4 hr): 71%
% tumor cell survival (Hairy cell leukemia; 25 ug/ml, 24 hr): 12%
% tumor cell survival (Hairy cell leukemia; 50 ug/ml, 1 hr): 37%
% tumor cell survival (Hairy cell leukemia; 50 ug/ml, 4 hr): 21%
% tumor cell survival (Hairy cell leukemia; 50 ug/ml, 24 hr): 7%
mean survival time (spontaneous leukemia; 5 mg per kg on days 1, 4, 7, 21, and 42): 100%
mean survival time (spontaneous leukemia; 10 mg per kg on days 1 and 14): 200%
leukemic thymus and spleen weights (spontaneous leukemia; after chemotherapy, either regimen): Significant reductions
treated animals alive after the onset of therapy (spontaneous leukemia; either treatment group): 30%
cytotoxicity lower compared to untreated L1210 cells (L1210 leukemia cells): 20-30%
dose response curves of L1210, L1210-T1 and L1210-T2 (L1210 leukemia cells): no differences could be detected
viability in continuous treatment (L1210 leukemia cells): nonviable
viability of L1210-T1 in continuous treatment (L1210 leukemia cells): nonviable
protection of surviving hosts against second graft of 1000 untreated L-1210 cells (L-1210 leukemia cells): did not confer protection
decrease of level of p24 compared to virions from solvent cultures (MMTV polypeptides): 36%
level of nonglycosylated protein p24 in MMTV particles (MMTV polypeptides): substantial decreases
level of p24 protein in the virion core (MMTV polypeptides): diminution
reduction in p24 (MMTV polypeptides): 71%
relative level of p24 compared to control (MMTV polypeptides): 35-40%
relative contribution of p24 in the virions, % of control level (MMTV polypeptides; hydrochloride): 54% and 74% and 65%
% tumor cell survival ([1]; 5 ug/ml, 1 hr): 100%
% tumor cell survival ([1]; 5 ug/ml, 4 hr): 100%
% tumor cell survival ([1]; 5 ug/ml, 8 hr): 100%
% tumor cell survival ([1]; 5 ug/ml, 24 hr): 74%
% tumor cell survival ([1]; 10 ug/ml, 1 hr): 100%
% tumor cell survival ([1]; 10 ug/ml, 4 hr): 100%
% tumor cell survival ([1]; 10 ug/ml, 8 hr): 63%
% tumor cell survival ([1]; 10 ug/ml, 24 hr): 64%
% tumor cell survival ([1]; 25 ug/ml, 1 hr): 100%
% tumor cell survival ([1]; 25 ug/ml, 4 hr): 100%
% tumor cell survival ([1]; 25 ug/ml, 8 hr): 92%
% tumor cell survival ([1]; 25 ug/ml, 24 hr): 60%
% tumor cell survival ([1]; 50 ug/ml, 1 hr): 100%
% tumor cell survival ([1]; 50 ug/ml, 4 hr): 100%
% tumor cell survival ([1]; 50 ug/ml, 8 hr): 58%
% tumor cell survival ([1]; 50 ug/ml, 24 hr): 33%
number of microvilli budding particles and buds ([2]; reincubated 1 day): reduced
number of microvilli ([2]; reincubated 2 days): reduced even farther
appearance of cell layers [3]: appeared unchanged
less MMTV produced compared to controls (labeled uridine) (MMTV): 37%
reduction of MMTV replication (MMTV): 27%
reduction of viral replication (labeled uridine) (MMTV): 42%
